Tests used:
Format in all cases: cell-based
[1] = test system: Jurkat (human T cell leukemia cell line); assay: MTT assay IC50 (48 h), Jurkat
Protocol: (§1) In another assay format, a test compound is assayed for its cytotoxicity and/or cytostatic effect on certain cancer cell types, using endpoint assay methods. Cells in the NCI cancer cell panel may be used. Cells after a pre-incubation for certain length of time (for example, 8 hrs or 24 hrs) are incubated with a test compound at serially-diluted concentrations (for example, five 10-fold dilutions) for 24 hrs and/or 48 hrs, and/or other specific length of time. The dose dependent cytotoxicity and/or cytostatic effects of test compounds can then be tested and evaluated using the 3-(4,5-dimethylthiazol-2-yl)-2,5-diphenyltetrazolium bromide (MTT) assay method, as described by, for example, Boyd (In Principle of Practice of Oncology, Devita, J. T., Hellman, S. and Rosenberg S. A. (Eds), 1989, Vol, 3, PPO Update, No. 10).
(§2) The anticancer potency of DBTS and its derivatives were tested in 8 different types of human cancer cell lines using the RT-CES system and MTT assay. The 8 cancer cell lines were HT1080 (the human fibrosarcoma cell line), H460 (human non small cell lung cancer cell line), OVCAR4 (the human ovarian cancer cell line), MCF7 (human breast cancer cell line) MDA-MB231 (M231, the human breast cancer cell line) A2780 (the human […] cancer cell line) Jurkat (the human T cell leukemia cell line). The test DBTS derivatives include ACEA100107, ACEA100108, ACEA100109, ACEA100111, ACEA100115, ACEA100116, ACEA100117, ACEA100118, ACEA100119, and ACEA100120.
(§3) For the MTT assay, the cells were seeded into the regular 96× well plates at the cell seeding density ranging from 5000 cells/well to 15,000 cells/well. The cells were incubated at 5% CO2 and 37° C. for overnight. The derivatives were serially diluted and added to the cells. The treatment was terminated after 48 hours of incubation by adding MTT staining reagent. After 4 hours, the staining was stopped by the stop buffer and then the calorimetric measurement was carried out on a microtiter plate reader at dual wave length, 650 nm and 550 nm.

[2] = test system: MCF7 (human breast cancer cell line); assay: MTT assay IC50 (48 h), MCF7; conditions: MCF-7, 48 hours
Protocol: as §1, §2, §3

[3] = test system: H460 (human non small cell lung cancer cell line); assay: MTT assay IC50 (48 h), H460; conditions: NCI-H460, H460, 48 hours
Protocol: as §1, §2, §3

[4] = test system: HT1080 (human fibrosarcoma cell line); assay: MTT assay IC50 (48 h), HT1080; conditions: HT-1080, HT1080, 48 hours
Protocol: as §1, §2, §3

[5] = test system: H460 (human non small cell lung cancer cell line); assay: RT-CES system cell proliferation/cytotoxicity, H460; conditions: NCI-H460, time point of maximum inhibition
Protocol: In operation, the devices with cells cultured in the wells are placed into a device station that is located inside an incubator. […] Under the RT-CES software control, the sensor analyzer can automatically select wells to be measured and continuously conduct impedance measurements. The impedance data from the analyzer is transferred to a computer, analyzed and processed by the integrated software.
H460 cells (human lung cancer cells) were seeded into wells of 16× or 96× microtiter plate devices (electronic plates, i.e., the plates comprise microelectrode sensor arrays in the wells of the plate) with an initial seeding density of 8000 cells per well and were pre-incubated in incubator under standard cell culture conditions for about 22 hrs. […] The cell status was monitored prior to and after the compound addition using RT-CES system. […] The cell index was normalized against the cell index values at a time point just after compound addition (about 23 hrs after cell seeding).
For the assay performed on the RT-CES system, the cells were seeded into the 16× or 96× microtiter plate devices (electronic plates, i.e., the plates comprise microelectrode sensor arrays in the wells of the plate) at the seeding density ranging from 5000 cells/well to 15,000 cells/well. The cells were incubated at 5% CO2 and 37° C. for overnight till the cell indices reached the growth phase where the cell index was between 0.8 and 1.2. Serially diluted compounds were then added to the cells followed by dynamic monitoring of the effect of the compounds on the cell proliferation and cytotoxicity. The time-dependent IC50 values for each derivative were calculated based the dose responses of cell index value at different time points after compound treatment.

[6] = test system: MCF7 (human breast cancer cell line); assay: RT-CES system cell proliferation/cytotoxicity IC50, MCF7; conditions: time point of maximum inhibition
Text: The RT-CES system comprises three components, an electronic sensor analyzer, a device station and 16× or 96× microtiter plate devices. Microelectrode sensor array was fabricated on glass slides with lithographical microfabrication methods and the electrode-containing slides are assembled to plastic trays to form electrode-containing wells. Each 16× (or 96×) microtiter plate device used in RT-CES system comprises up to 16 (or 96) such electrode-containing wells. The device station receives the 16× or 96× microtiter plate devices and is capable of electronically switching any one of the wells to the sensor analyzer for impedance measurement. In operation, the devices with cells cultured in the wells are placed into a device station that is located inside an incubator. Electrical cables connect the device station to the sensor analyzer. Under the RT-CES software control, the sensor analyzer can automatically select wells to be measured and continuously conduct impedance measurements. The impedance data from the analyzer is transferred to a computer, analyzed and processed by the integrated software.
To quantify cell status based on the measured cell-electrode impedance, a parameter termed Cell Index is derived, according to
[formula] where Rb(f) and Rcell(f) are the frequency dependent electrode resistances (a component of impedance) without cells or with cell present, respectively. N is the number of the frequency points at which the impedance is measured. Thus, Cell Index is a quantitative measure of the status of the cells in an electrode-containing well. Under the same physiological conditions, more cells attached on to the electrodes leads to larger Rcell(f) value, leading to a larger value for Cell Index. Furthermore, for the same number of cells present in the well, a change in the cell status such as morphology will lead to a change in the Cell Index. For example, an increase in cell adhesion or cell spreading leads to larger cell-electrode contact area which will lead to an increase in Rcell(f) and thus a larger value for Cell Index. The Cell Index may also be calculated using a formula different from the one described here. Other methods for calculating the Cell Index based on impedance measurement can be found in PCT application number PCT/US04/37696, fined on Nov. 12, 2004, PCT application number PCT/US05/04481, filed on Feb. 9, 2005, U.S. patent application Ser. No. 10/987,732, filed on Nov. 12, 2004, and U.S. patent application Ser. No. 11/055,639, filed on Feb. 9, 2005.
MCF-7 cells (human breast cancer cells) were seeded into wells of 16× or 96× microtiter plate devices (electronic plates, i.e., the plates comprise microelectrode sensor arrays in the wells of the plate) with an initial seeding density of 10,000 cells per well and were pre-incubated in incubator under standard cell culture conditions for about 44 hrs. Dibenzyl trisulfide solution in DMSO was added into wells following the incubation period. The cell status was monitored prior to and after the compound addition using RT-CES system. The cell indexes of different wells were between 1.2 and 1.5 just before the compound addition. […] The cell index was normalized against the cell index values at a time point just after compound addition (about 44.5 hrs after cell seeding).
For the assay performed on the RT-CES system, the cells were seeded into the 16× or 96× microtiter plate devices (electronic plates, i.e., the plates comprise microelectrode sensor arrays in the wells of the plate) at the seeding density ranging from 5000 cells/well to 15,000 cells/well. The cells were incubated at 5% CO2 and 37° C. for overnight till the cell indices reached the growth phase where the cell index was between 0.8 and 1.2. Serially diluted compounds were then added to the cells followed by dynamic monitoring of the effect of the compounds on the cell proliferation and cytotoxicity. […]

HepG2 cells = assay: MTT assay IC50 (48 h), HepG2 (eighth cell line not given); conditions: Homo sapiens; HepG2, 48 hours
Protocol: as §1, §2, §3

[7] = test system: OVCAR4 (human ovarian cancer cell line); assay: MTT assay IC50 (48 h), OVCAR4; conditions: OVCAR-4, OVCAR4, 48 hours
Protocol: as §1, §2, §3

A2780 cells = assay: MTT assay IC50 (48 h), A2780; conditions: Homo sapiens; A2780, 48 hours
Protocol: as §1, §2, §3

SMILES | IC50 [1] [nM] | IC50 [2] [µM] | IC50 [3] [µM] | IC50 [4] [µM] | IC50 (HepG2 cells) [µM] | IC50 [7] [µM] | IC50 (A2780 cells) [nM] | IC50 [5] [µM] | IC50 [6] [µM]
c1ccc(CSSSCc2ccccc2)cc1 [DBTS, Dibenzyl trisulfide] | 350 | > 50 | 14.2 | 2.55 | > 50 | > 50 | 1200 | 11.1 | 6.6
FC(F)(F)c1cccc(CSSSCc2cccc(C(F)(F)F)c2)c1 [ACEA100117, Di(m-trifluoromethylbenzyl)trisulfide] | 8000 | > 50 | > 50 | 47.5 | > 50 | > 50 | 11700 | > 50 | 48.8
Fc1ccc(CSSSCc2ccc(F)cc2)cc1 [ACEA100108, Di(p-fluorobenzyl)trisulfide] | 350 | > 50 | 10.2 | 19 | > 50 | > 50 | 4700 | 9.2 | 2.15
Cc1cccc(CSSSCc2cccc(C)c2)c1 [ACEA100116, di(m-methylbenzyl)trisulfide] | 300 | > 50 | 5.4 | 2.2 | > 50 | > 50 | 800 | 12.5 | 2.75

More lines, main results first:

IC50 [1] [nM] | IC50 [2] [µM] | IC50 [3] [µM] | IC50 [4] [µM] | IC50 (HepG2 cells) [µM] | IC50 [7] [µM] | IC50 (A2780 cells) [nM] | SMILES | IC50 [5] [µM] | IC50 [6] [µM]
510 | > 50 | 11.8 | 12.4 | > 50 | > 50 | 1500 | Clc1ccccc1CSSSCc1ccccc1Cl [ACEA100115, Di(o-chlorobenzyl)trisulfide] | 23.2 | 7.8
500 | > 50 | 7.95 | 1.15 | > 50 | > 50 | 800 | Clc1ccc(CSSSCc2ccc(Cl)cc2)cc1 [ACEA100118, Di(p-chlorobenzyl)trisulfide] | 9.6 | 4.4
